Reference: PMC4685510, “A Cell Biologist’s Field Guide to Aurora Kinase Inhibitors” (Frontiers in Oncology, 2015)

Key:
Experiment in all cases: biochemical
Assay type in all cases: biochemical
[1] = target: 363 human kinases (including Aurora A/B/C) (Homo sapiens, UniProt O14578); conditions: STK21/CIT; for remaining activity at 0.1 µM: 100 nM; for remaining activity at 0.1 µM / remaining activity at 0.5 µM: read-out: % Enzyme Activity (relative to DMSO controls)
Source text: (§1) However, the Aurora A/B selectivity ratios derived from our in vitro and in vivo data can be compared to prioritize inhibitors.

[2] = target: T1, 363 human kinases (including Aurora A/B/C) (Homo sapiens, UniProt O15111); conditions: IKKa/CHUK; for remaining activity at 0.1 µM: 100 nM; for remaining activity at 0.1 µM / remaining activity at 0.5 µM: read-out: % Enzyme Activity (relative to DMSO controls)
T1 sequence (O15111 1-745): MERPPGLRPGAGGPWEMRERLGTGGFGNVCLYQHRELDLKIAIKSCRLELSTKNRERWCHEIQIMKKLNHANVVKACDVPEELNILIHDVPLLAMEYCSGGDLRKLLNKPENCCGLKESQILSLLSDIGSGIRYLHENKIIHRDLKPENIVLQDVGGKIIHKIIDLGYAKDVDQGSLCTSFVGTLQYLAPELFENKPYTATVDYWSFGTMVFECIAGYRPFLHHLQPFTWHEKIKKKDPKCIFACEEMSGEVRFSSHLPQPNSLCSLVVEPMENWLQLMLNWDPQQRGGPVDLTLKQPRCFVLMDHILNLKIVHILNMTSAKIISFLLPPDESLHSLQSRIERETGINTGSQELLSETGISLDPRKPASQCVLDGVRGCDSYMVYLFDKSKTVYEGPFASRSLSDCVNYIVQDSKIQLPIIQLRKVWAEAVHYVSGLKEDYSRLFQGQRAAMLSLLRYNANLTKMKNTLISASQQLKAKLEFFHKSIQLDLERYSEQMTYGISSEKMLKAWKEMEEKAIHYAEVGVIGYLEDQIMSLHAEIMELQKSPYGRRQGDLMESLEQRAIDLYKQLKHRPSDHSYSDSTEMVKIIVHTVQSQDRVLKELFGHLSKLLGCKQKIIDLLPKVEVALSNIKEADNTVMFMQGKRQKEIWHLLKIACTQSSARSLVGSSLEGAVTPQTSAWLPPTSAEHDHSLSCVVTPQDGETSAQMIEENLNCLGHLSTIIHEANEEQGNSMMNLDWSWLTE
Source text: as §1

[3] = target: 363 human kinases (including Aurora A/B/C) (Homo sapiens, UniProt O75460); conditions: ERN1/IRE1, [ATP] 30 µM; for remaining activity at 0.1 µM: 100 nM; for remaining activity at 0.1 µM / remaining activity at 0.5 µM: read-out: % Enzyme Activity (relative to DMSO controls)
Source text: as §1

[4] = target: 363 human kinases (including Aurora A/B/C) (Homo sapiens, UniProt O94804); conditions: LOK/STK10; for remaining activity at 0.1 µM: 100 nM; for remaining activity at 0.1 µM / remaining activity at 0.5 µM: read-out: % Enzyme Activity (relative to DMSO controls)
Source text: as §1

[5] = target: 363 human kinases (including Aurora A/B/C) (Homo sapiens, UniProt P16591); conditions: FER, [ATP] 50 µM; for remaining activity at 0.1 µM: 100 nM; for remaining activity at 0.1 µM / remaining activity at 0.5 µM: read-out: % Enzyme Activity (relative to DMSO controls)
Source text: as §1

[6] = target: 363 human kinases (including Aurora A/B/C) (Homo sapiens, UniProt P80192); conditions: MLK1/MAP3K9; for remaining activity at 0.1 µM: 100 nM; for remaining activity at 0.1 µM / remaining activity at 0.5 µM: read-out: % Enzyme Activity (relative to DMSO controls)
Sequence of 363 human kinases (including Aurora A/B/C) (Homo sapiens, UniProt P80192) (P80192 whole entry): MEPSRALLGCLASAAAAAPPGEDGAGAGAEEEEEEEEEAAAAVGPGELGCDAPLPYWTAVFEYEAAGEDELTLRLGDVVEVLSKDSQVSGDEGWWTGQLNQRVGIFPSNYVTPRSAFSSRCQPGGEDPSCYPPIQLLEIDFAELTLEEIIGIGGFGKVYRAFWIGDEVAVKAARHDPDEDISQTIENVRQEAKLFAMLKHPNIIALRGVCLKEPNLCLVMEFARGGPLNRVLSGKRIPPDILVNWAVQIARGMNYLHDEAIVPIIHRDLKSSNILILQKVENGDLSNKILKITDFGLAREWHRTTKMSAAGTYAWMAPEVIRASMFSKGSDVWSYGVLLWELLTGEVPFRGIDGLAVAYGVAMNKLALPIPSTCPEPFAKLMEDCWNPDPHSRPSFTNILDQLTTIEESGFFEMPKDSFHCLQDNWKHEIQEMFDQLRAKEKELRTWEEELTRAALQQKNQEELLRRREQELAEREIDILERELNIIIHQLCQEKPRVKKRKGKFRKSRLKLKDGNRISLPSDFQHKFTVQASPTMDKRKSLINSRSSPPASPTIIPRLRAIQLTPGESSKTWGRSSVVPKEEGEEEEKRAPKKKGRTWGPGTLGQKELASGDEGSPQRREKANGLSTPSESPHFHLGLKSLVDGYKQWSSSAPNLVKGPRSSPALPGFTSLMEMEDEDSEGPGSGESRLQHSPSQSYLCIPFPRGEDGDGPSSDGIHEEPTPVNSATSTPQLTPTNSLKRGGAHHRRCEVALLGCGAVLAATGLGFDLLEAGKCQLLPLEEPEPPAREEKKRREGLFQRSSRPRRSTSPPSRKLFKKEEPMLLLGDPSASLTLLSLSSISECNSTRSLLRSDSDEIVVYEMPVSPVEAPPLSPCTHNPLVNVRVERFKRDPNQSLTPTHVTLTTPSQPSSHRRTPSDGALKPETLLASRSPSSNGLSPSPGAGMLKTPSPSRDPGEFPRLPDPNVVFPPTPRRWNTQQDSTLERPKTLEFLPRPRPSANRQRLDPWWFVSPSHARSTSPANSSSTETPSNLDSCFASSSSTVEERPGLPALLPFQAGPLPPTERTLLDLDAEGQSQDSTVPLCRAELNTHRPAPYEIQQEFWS
Source text: as §1

[7] = target: 363 human kinases (including Aurora A/B/C) (Homo sapiens, UniProt Q16620); conditions: TRKB; for remaining activity at 0.1 µM: 100 nM
Source text: as §1

[8] = target: 363 human kinases (including Aurora A/B/C) (Homo sapiens, UniProt Q16644); conditions: MAPKAPK3; for remaining activity at 0.1 µM: 100 nM; for remaining activity at 0.1 µM / remaining activity at 0.5 µM: read-out: % Enzyme Activity (relative to DMSO controls)
Source text: as §1

[9] = target: 363 human kinases (including Aurora A/B/C) (Homo sapiens, UniProt Q5S007); conditions: LRRK2; for remaining activity at 0.1 µM: 100 nM; for remaining activity at 0.1 µM / remaining activity at 0.5 µM: read-out: % Enzyme Activity (relative to DMSO controls)
Source text: as §1

[10] = target: 363 human kinases (including Aurora A/B/C) (Homo sapiens, UniProt Q6DT37); conditions: DMPK2, [ATP] 2.5 µM; for remaining activity at 0.1 µM: 100 nM; for remaining activity at 0.1 µM / remaining activity at 0.5 µM: read-out: % Enzyme Activity (relative to DMSO controls)
Source text: as §1

[11] = target: 363 human kinases (including Aurora A/B/C) (Homo sapiens, UniProt Q8NEV4); conditions: MYO3A; for remaining activity at 0.1 µM: 100 nM; for remaining activity at 0.1 µM / remaining activity at 0.5 µM: read-out: % Enzyme Activity (relative to DMSO controls)
Source text: as §1

[12] = target: 363 human kinases (including Aurora A/B/C) (Homo sapiens, UniProt Q9H2G2); conditions: SLK/STK2; for remaining activity at 0.1 µM: 100 nM; for remaining activity at 0.1 µM / remaining activity at 0.5 µM: read-out: % Enzyme Activity (relative to DMSO controls)
Sequence of 363 human kinases (including Aurora A/B/C) (Homo sapiens, UniProt Q9H2G2) (Q9H2G2 whole entry): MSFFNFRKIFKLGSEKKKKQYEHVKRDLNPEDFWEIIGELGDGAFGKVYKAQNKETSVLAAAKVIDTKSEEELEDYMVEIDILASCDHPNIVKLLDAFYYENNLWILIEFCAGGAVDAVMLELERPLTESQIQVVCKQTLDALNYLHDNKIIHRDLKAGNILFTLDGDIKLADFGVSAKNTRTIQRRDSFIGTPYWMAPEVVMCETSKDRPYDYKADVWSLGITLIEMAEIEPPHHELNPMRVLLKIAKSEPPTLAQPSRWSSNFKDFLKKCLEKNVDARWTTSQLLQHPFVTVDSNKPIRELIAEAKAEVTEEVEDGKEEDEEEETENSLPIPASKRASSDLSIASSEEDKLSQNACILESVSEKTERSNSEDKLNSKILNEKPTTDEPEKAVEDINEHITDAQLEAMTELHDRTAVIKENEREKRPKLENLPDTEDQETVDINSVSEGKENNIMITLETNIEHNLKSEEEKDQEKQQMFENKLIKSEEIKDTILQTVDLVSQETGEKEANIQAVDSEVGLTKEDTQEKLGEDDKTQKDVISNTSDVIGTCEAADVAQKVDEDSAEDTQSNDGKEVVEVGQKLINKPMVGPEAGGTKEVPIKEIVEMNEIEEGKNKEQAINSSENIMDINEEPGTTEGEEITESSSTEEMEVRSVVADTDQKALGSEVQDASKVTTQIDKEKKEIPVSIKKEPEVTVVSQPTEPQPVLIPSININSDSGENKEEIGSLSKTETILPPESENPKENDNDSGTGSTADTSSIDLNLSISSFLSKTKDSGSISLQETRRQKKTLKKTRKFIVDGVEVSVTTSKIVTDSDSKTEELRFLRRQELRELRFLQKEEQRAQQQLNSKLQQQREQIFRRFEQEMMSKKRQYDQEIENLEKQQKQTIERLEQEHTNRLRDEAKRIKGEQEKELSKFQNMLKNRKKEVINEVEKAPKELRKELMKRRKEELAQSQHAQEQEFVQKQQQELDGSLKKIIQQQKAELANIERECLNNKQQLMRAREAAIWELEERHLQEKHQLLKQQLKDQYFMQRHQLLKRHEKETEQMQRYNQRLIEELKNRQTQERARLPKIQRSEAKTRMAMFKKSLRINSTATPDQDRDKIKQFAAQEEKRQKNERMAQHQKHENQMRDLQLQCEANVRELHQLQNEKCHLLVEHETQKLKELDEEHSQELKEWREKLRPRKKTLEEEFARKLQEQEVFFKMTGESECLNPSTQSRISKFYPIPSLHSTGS
Source text: as §1

[13] = target: 363 human kinases (including Aurora A/B/C) (Homo sapiens, UniProt Q9H4B4); conditions: PLK3; for remaining activity at 0.1 µM: 100 nM; for remaining activity at 0.1 µM / remaining activity at 0.5 µM: read-out: % Enzyme Activity (relative to DMSO controls)
Sequence of 363 human kinases (including Aurora A/B/C) (Homo sapiens, UniProt Q9H4B4) (Q9H4B4 whole entry): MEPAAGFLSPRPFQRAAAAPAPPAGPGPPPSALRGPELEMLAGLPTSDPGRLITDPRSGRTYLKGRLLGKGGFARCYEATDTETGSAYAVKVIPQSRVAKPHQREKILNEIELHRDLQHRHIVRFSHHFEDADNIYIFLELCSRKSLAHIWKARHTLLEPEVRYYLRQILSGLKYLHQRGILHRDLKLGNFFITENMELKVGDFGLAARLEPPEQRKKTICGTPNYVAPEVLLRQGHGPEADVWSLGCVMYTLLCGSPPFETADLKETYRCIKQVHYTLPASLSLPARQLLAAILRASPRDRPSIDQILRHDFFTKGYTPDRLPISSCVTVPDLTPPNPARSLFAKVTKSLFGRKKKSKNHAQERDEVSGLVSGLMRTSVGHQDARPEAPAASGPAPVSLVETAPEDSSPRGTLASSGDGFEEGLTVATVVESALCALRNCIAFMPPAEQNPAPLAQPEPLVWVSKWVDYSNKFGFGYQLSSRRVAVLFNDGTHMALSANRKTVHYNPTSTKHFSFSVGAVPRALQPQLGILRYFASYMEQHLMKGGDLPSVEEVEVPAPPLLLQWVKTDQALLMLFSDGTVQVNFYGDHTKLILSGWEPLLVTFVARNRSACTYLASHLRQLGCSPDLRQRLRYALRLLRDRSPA
Source text: as §1

[14] = target: 363 human kinases (including Aurora A/B/C) (Homo sapiens, UniProt Q9HAZ1); conditions: CLK4, [ATP] 100 µM; for remaining activity at 0.1 µM: 100 nM; for remaining activity at 0.1 µM / remaining activity at 0.5 µM: read-out: % Enzyme Activity (relative to DMSO controls)
Source text: as §1

[15] = target: T2, 363 human kinases (including Aurora A/B/C) (Homo sapiens, UniProt Q9HBY8); conditions: SGK2; for remaining activity at 0.1 µM: 100 nM; for remaining activity at 0.1 µM / remaining activity at 0.5 µM: read-out: % Enzyme Activity (relative to DMSO controls)
T2 sequence (Q9HBY8 1-367): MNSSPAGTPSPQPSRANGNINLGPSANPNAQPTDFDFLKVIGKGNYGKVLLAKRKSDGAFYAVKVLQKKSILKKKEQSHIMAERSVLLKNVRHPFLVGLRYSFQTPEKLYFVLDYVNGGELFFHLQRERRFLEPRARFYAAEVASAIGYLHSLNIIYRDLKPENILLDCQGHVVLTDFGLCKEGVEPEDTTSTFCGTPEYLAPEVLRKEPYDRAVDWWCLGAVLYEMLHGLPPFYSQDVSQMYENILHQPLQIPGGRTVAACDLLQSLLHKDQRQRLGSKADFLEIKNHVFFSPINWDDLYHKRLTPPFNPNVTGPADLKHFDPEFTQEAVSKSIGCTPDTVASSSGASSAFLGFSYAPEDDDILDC
Source text: as §1

[16] = target: 363 human kinases (including Aurora A/B/C) (Homo sapiens, UniProt Q9UK32); conditions: RSK4; for remaining activity at 0.1 µM: 100 nM; for remaining activity at 0.1 µM / remaining activity at 0.5 µM: read-out: % Enzyme Activity (relative to DMSO controls)
Source text: as §1

[17] = target: 363 human kinases (including Aurora A/B/C) (Homo sapiens, UniProt Q9Y2K2); conditions: SIK3; for remaining activity at 0.1 µM: 100 nM; for remaining activity at 0.1 µM / remaining activity at 0.5 µM: read-out: % Enzyme Activity (relative to DMSO controls)
Source text: as §1

[18] = read-out: % Enzyme Activity (relative to DMSO controls)

Sequence of 363 human kinases (including Aurora A/B/C) (Homo sapiens, UniProt O14578) (O14578 whole entry): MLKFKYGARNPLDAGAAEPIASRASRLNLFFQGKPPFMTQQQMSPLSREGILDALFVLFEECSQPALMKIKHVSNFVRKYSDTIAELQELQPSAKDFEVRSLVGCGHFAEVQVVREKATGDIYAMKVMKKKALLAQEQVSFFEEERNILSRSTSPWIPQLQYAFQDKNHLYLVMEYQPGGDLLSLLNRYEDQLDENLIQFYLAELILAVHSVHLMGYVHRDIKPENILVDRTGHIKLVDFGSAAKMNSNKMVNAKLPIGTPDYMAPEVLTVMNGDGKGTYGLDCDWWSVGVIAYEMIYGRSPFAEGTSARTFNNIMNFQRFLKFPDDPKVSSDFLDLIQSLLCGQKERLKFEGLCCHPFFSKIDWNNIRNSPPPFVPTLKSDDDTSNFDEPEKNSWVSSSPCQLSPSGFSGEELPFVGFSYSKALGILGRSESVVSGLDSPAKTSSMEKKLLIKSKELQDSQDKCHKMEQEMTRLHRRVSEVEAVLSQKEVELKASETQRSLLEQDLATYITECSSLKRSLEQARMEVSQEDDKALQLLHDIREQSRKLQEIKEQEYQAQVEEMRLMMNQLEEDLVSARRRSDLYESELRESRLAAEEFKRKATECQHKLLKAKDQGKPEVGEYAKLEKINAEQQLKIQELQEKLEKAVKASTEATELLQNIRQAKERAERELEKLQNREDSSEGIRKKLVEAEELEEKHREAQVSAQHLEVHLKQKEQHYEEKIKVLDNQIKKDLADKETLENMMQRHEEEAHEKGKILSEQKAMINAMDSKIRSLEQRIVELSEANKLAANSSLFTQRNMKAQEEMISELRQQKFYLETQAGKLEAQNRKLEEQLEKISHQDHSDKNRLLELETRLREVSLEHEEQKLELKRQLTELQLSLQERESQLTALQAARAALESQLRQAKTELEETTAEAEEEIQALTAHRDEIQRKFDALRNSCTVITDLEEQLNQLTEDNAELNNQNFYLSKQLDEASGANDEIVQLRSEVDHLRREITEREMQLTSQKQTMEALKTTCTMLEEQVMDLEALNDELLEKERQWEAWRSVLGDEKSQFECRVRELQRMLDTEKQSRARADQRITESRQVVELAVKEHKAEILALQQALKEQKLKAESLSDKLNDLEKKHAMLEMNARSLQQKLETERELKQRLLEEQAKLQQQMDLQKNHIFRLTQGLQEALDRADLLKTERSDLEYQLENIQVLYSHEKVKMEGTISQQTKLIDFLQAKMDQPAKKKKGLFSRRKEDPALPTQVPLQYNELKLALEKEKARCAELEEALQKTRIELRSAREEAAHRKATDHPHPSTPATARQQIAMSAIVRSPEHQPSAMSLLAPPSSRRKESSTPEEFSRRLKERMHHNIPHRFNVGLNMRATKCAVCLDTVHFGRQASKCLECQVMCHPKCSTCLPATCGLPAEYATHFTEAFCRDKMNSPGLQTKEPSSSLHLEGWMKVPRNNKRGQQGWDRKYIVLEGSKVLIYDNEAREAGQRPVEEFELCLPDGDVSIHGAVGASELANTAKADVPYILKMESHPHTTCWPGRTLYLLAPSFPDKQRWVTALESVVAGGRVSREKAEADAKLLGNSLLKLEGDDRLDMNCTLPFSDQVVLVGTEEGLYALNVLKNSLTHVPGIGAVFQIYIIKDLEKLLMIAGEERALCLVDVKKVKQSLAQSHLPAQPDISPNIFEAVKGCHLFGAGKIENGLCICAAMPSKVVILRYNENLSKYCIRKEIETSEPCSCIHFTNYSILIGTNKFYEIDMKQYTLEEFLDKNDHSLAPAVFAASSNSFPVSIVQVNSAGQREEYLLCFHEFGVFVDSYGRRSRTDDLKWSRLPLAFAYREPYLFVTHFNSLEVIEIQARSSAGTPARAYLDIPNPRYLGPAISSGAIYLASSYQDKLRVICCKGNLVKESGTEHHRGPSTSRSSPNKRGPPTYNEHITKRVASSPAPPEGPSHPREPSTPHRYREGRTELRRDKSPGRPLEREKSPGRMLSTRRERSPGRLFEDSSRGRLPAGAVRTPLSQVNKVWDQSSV

SMILES: CCn1cc(-c2ccnc3[nH]c(-c4cccc(CN(C)C)c4)cc23)c(-c2ccc(NC(=O)N(C)C)cc2)n1 [GSK1070916]
- remaining activity at 0.1 µM [1]: 100%
- remaining activity at 0.1 µM [2]: 126%
- remaining activity at 0.1 µM [3]: 95.9%
- remaining activity at 0.1 µM [4]: 73.2%
- remaining activity at 0.1 µM [5]: 96.5%
- remaining activity at 0.1 µM [6]: 97.6%
- remaining activity at 0.1 µM [7, 18]: 108%
- remaining activity at 0.1 µM [8]: 93.8%
- remaining activity at 0.1 µM [9]: 92.1%
- remaining activity at 0.1 µM [10]: 89.4%
- remaining activity at 0.1 µM [11]: 92.9%
- remaining activity at 0.1 µM [12]: 95.2%
- remaining activity at 0.1 µM [13]: 101%
- remaining activity at 0.1 µM [14]: 70.3%
- remaining activity at 0.1 µM [15]: 102%
- remaining activity at 0.1 µM [16]: 93.6%
- remaining activity at 0.1 µM [17]: 87.8%

SMILES: O=C(O)[C@]1(Cc2cccc(Nc3nccs3)n2)CC[C@@H](Oc2cccc(Cl)c2F)CC1 [MK-5108]
- remaining activity at 0.1 µM [1]: 115%
- remaining activity at 0.5 µM ([1]; 500 nM): 102%
- remaining activity at 0.1 µM [2]: 118%
- remaining activity at 0.5 µM ([2]; 500 nM): 113%
- remaining activity at 0.1 µM [3]: 106%
- remaining activity at 0.5 µM ([3]; 500 nM): 88.8%
- remaining activity at 0.1 µM [4]: 34%
- remaining activity at 0.5 µM ([4]; 500 nM): 10.3%
- remaining activity at 0.1 µM [5]: 87%
- remaining activity at 0.5 µM ([5]; 500 nM): 49.8%
- remaining activity at 0.1 µM [6]: 88.5%
- remaining activity at 0.5 µM ([6]; 500 nM): 64.3%
- remaining activity at 0.1 µM [7, 18]: 1.79%
- remaining activity at 0.1 µM [8]: 99.7%
- remaining activity at 0.5 µM ([8]; 500 nM): 84.9%
- remaining activity at 0.1 µM [9]: 52.7%
- remaining activity at 0.5 µM ([9]; 500 nM): 14.2%
- remaining activity at 0.1 µM [10]: 98.7%
- remaining activity at 0.5 µM ([10]; 500 nM): 140%
- remaining activity at 0.1 µM [11]: 90.8%
- remaining activity at 0.5 µM ([11]; 500 nM): 131%
- remaining activity at 0.1 µM [12]: 53.5%
- remaining activity at 0.5 µM ([12]; 500 nM): 16.7%
- remaining activity at 0.1 µM [13]: 103%
- remaining activity at 0.5 µM ([13]; 500 nM): 104%
- remaining activity at 0.1 µM [14]: 34.9%
- remaining activity at 0.5 µM ([14]; 500 nM): 6.67%
- remaining activity at 0.1 µM [15]: 105%
- remaining activity at 0.5 µM ([15]; 500 nM): 105%
- remaining activity at 0.1 µM [16]: 94.2%
- remaining activity at 0.5 µM ([16]; 500 nM): 90.1%
- remaining activity at 0.1 µM [17]: 97.3%
- remaining activity at 0.5 µM ([17]; 500 nM): 103%

SMILES: O=C(c1cccc(Cl)c1F)N1CCN(Cc2cccc(Nc3nccs3)n2)CC1 [MK-8745]
- % Enzyme Activity (relative to DMSO controls) ([1]; 500 nM): 101.37%
- remaining activity at 0.5 µM ([1]; 500 nM): 104%
- % Enzyme Activity (relative to DMSO controls) ([2]; 500 nM): 107.82%
- remaining activity at 0.5 µM ([2]; 500 nM): 114%
- % Enzyme Activity (relative to DMSO controls) ([3]; 500 nM): 88.65%
- remaining activity at 0.5 µM ([3]; 500 nM): 89.3%
- % Enzyme Activity (relative to DMSO controls) ([4]; 500 nM): 49.80%
- remaining activity at 0.5 µM ([4]; 500 nM): 52.1%
- % Enzyme Activity (relative to DMSO controls) ([5]; 500 nM): 82.62%
- remaining activity at 0.5 µM ([5]; 500 nM): 83.7%
- % Enzyme Activity (relative to DMSO controls) ([6]; 500 nM): 101.78%
- remaining activity at 0.5 µM ([6]; 500 nM): 102%
- % Enzyme Activity (relative to DMSO controls) ([7]; 500 nM): 8.70%
- remaining activity at 0.5 µM ([7]; 500 nM, read-out: % Enzyme Activity (relative to DMSO controls)): 9.04%
- % Enzyme Activity (relative to DMSO controls) ([8]; 500 nM): 87.18%
- remaining activity at 0.5 µM ([8]; 500 nM): 88.7%
- % Enzyme Activity (relative to DMSO controls) ([9]; 500 nM): 88.73%
- remaining activity at 0.5 µM ([9]; 500 nM): 92.8%
- % Enzyme Activity (relative to DMSO controls) ([10]; 500 nM): 124.49%
- remaining activity at 0.5 µM ([10]; 500 nM): 126%
- % Enzyme Activity (relative to DMSO controls) ([11]; 500 nM): 66.28%
- remaining activity at 0.5 µM ([11]; 500 nM): 71.2%
- % Enzyme Activity (relative to DMSO controls) ([12]; 500 nM): 77.19%
- remaining activity at 0.5 µM ([12]; 500 nM): 77.7%
- % Enzyme Activity (relative to DMSO controls) ([13]; 500 nM): 99.37%
- remaining activity at 0.5 µM ([13]; 500 nM): 102%
- % Enzyme Activity (relative to DMSO controls) ([14]; 500 nM): 57.02%
- remaining activity at 0.5 µM ([14]; 500 nM): 59.9%
- % Enzyme Activity (relative to DMSO controls) ([15]; 500 nM): 98.06%
- remaining activity at 0.5 µM ([15]; 500 nM): 100%
- % Enzyme Activity (relative to DMSO controls) ([16]; 500 nM): 94.73%
- remaining activity at 0.5 µM ([16]; 500 nM): 97.1%
- % Enzyme Activity (relative to DMSO controls) ([17]; 500 nM): 91.26%
- remaining activity at 0.5 µM ([17]; 500 nM): 93.5%
